{"source": "patent US7063959B1", "about": "“Compositions of the SOC/CRAC calcium channel protein family” (priority 1998, dated 2006)", "test_system": "SOC/CRAC calcium channel", "assay": "Pharmacologic behavior of SOC/CRAC: calcium influx elicited by store depletion (fura-2) in SOC/CRAC-expressing cells", "assay_type": "cell-based", "settings": "SOC/CRAC expressed in RBL-2H3 mast cells by recombinant vaccinia virus; stores depleted with thapsigargin; cells pre-incubated with reagent; effect substantially the same as on endogenous thapsigargin-dependent calcium influx", "data": [{"smiles": "CCCCCCCCCCCCC/C=C/[C@@H](O)[C@@H](N)CO", "note": "[sphingosine, Sphingosine]", "values": [{"measurement": "SOC/CRAC-enhanced calcium influx", "result": "inhibited"}]}]}
